The values below are quoted from earlier work in US9138422B2, “Method of using antimycin A to downregulate Wnt/b-catenin pathway to treat gefitinib resistant cancer” (priority 2011, dated 2015).

The test system of this series is NSCLC (lung adenocarcinoma) patients. Conditions: cited from earlier work.

Read-outs that look alike come from different tables or passages of the source.

`C#Cc1cccc(Nc2ncnc3cc(OCCOC)c(OCCOC)cc23)c1` [erlotinib]: the “median progression free survival” value (second line treatment after chemotherapy) is given as 2.2 months.

As to `COc1cc2ncnc(Nc3ccc(F)c(Cl)c3)c2cc1OCCCN1CCOCC1` [gefitinib], the “median progression free survival” value (first-line treatment, sensitive EGFR mutated patients) is given as “about 10 months”.
